Experimental data from patent EP4621052A1, “IMMUNE CELL TARGETING PROBE, PRE-TARGETING RECOGNITION AND DRUG DELIVERY SYSTEM BASED ON PROBE, AND USE THEREOF” (Guangdong Keyangle Life Technology Co., Ltd., priority 2022, dated 2024).
Where no end group is shown, it is not given here.

T1: Peptide segment KL19 (KEQPDPGAVAAAAILRAIL)
T1 construct: Synthetic peptide used as ELISA coating antigen; Derived from the C-terminal fragment of Triokinase/FMN cyclase, with an added N-terminal K
T1 peptide: KEQPDPGAVAAAAILRAIL


Tests used:
[1] = system: peritoneal macrophages; experiment: in vivo labeling of peritoneal macrophages by targeting polypeptide with pre-targeting binding handle; parameters: species or system Kunming mice; conditions: 10 µM peptide premixed with Strep-PE, intraperitoneal injection, 4 h; F4/80-APC counterstain; flow cytometry
Protocol: • (1) In vivo labeling of peritoneal macrophages by targeting polypeptides connected with pre-targeting binding handles: In this example, the targeting polypeptides KS24 (amino acid sequence: […] (SEQ ID NO: 29)) and KS29 (amino acid sequence: […] (SEQ ID NO: 30)) were used. The pre-targeting binding handle was biotin. The biotinylation steps of the targeting polypeptides were as follows: the biotinylation of targeting polypeptides was carried out by adding biotinylated amino acids during peptide synthesis, so that the biotinylation sites can be controlled. Two biotinylated targeting polypeptides (bio-KS24 and bio-KS29) were respectively connected to phycoerythrin-labeled streptavidin (Strep-PE), where streptavidin served as a linker, and the phycoerythrin was connected through the specific binding of the linker to the pre-targeting binding handle (biotin-avidin system) to the targeting polypeptide for immune cell labeling and tracing. The mixtures were incubated together at room temperature for 1 h. In a 100 µL reaction system, the final concentration of the biotinylated targeting polypeptide was 10 µM, and 1 µL of Strep-PE was added. After the incubation, two groups of healthy female Kunming mice (3 mice in each group) were selected. […] After incubation, the cells were washed twice with 1× PBS and analyzed using flow cytometry. […]

[2] = system: peripheral blood of Kunming mice; experiment: labeling of peripheral blood with targeting polypeptide with pre-targeting binding handle, flow cytometry; type: cell-based; conditions: 10 µM peptide; for staining of cell populations in peripheral blood: 4°C 30 min, Strep-PE, CD19 and CD5 antibodies; for identity of the labeled B lymphocyte population: CD19 and CD5 counterstain
Source text: (2) Labeling of peripheral blood with the targeting polypeptide connected with pre-targeting binding handle: Healthy Kunming mice were taken and killed by cervical dislocation, and their peripheral blood was collected using anticoagulant blood vessels.
KS24 and KS29 were biotinylated according to the method described in (1) to obtain targeting polypeptides bio-KS24 and bio-KS29 connected with pre-targeting binding handle. The targeting polypeptides bio-KS24 and bio-KS29 each connected with the pre-targeting binding handle were added to 50 µL of peripheral blood samples, respectively, to be diluted to 100 µL with 1×PBS so that the concentration of the targeting polypeptides bio-KS24 and bio-KS29 connected with the pre-targeting binding handle in the solution was 10 µM, and the mixture was incubated at 4°C for 30 min. After the incubation, red blood cells in the peripheral blood were lysed using a conventional red blood cell lysis reagent in the art according to the instructions, washed twice with 1×PBS, resuspended with 100 µL of 1×PBS, and 1 µL/tube of phycoerythrin-labeled Strep-PE, 0.5 µL/tube of anti-mouse CD19 Antibody, and 0.5 µL/tube of FITC anti-mouse CD5 Antibody were added, and incubated at room temperature for 1 h. After the incubation, the cells were washed twice with 1× PBS and analyzed by flow cytometry.

[3] = system: peritoneal free macrophages; experiment: pre-targeting delivery after intraperitoneal injection, free peritoneal cells, fluorescence microscopy; type: in vivo, Kunming mice; conditions: peptide 10 µM intraperitoneal, Strep-PE intraperitoneal 3 h later, killed 1 h later; F4/80-APC counterstain
Protocol: (§1) The specific experimental steps are as follows: Biotinylated targeting polypeptides bio-KS24 and bio-KS29 (i.e., targeting polypeptides connected with the pre-targeting binding handles) were prepared according to the steps described in the above examples.
(§2) The targeting polypeptides (bio-KS24 and bio-KS29) connected with the pre-targeting binding handles were prepared, respectively, with a final concentration of 10 µM and a final volume of 100 µL. Then, the mixture was diluted with PBS to 4 times of the original volume (i.e., 100 µL of the mixed system was diluted to 400 µL), and then injected into Kunming mice intraperitoneally, with an injection volume of 400 µL per mouse. After the injection of the targeted polypeptide for 3 h, 5 µL Trep-PE was diluted into 100 µL of 1× PBS and intraperitoneally injected into mice. The mice were killed 1 h after the injection, and free peritoneal cells and mesentery were extracted and counterstained with F4/80-APC antibody. After incubation, the cells were washed twice with 1× PBS and observed under a fluorescence microscope.
(§3) Untreated healthy mice were used as controls.

[4] = system: macrophages on the mesentery; experiment: pre-targeting delivery after intraperitoneal injection, mesentery, fluorescence microscopy; type: in vivo, Kunming mice; conditions: peptide 10 µM intraperitoneal, Strep-PE intraperitoneal 3 h later, killed 1 h later; F4/80-APC counterstain
Protocol: as §1, §2, §3

[5] = molecular target: T1, Peptide segment KL19 …; experiment: indirect ELISA, peptide as coating antigen

Molecule | recognition of macrophages in peritoneal cells [1] | staining of cell populations in peripheral blood [2] | identity of the labeled B lymphocyte population [2] | pre-labeling of free peritoneal macrophages [3] | pre-labeling of macrophages on the mesentery [4] | binding result [5]
bio-KS24: biotinylated targeting polypeptide KS24, KEQPDPGAVAAAAILRAILEVLQS (SEQ ID NO: 29) (also: biotinylated, site not given here) | can selectively recognize macrophages in peritoneal cells of mice | can stain a subset of B lymphocyte population and granulocyte population | CD5^+ B lymphocytes | could pre-label macrophages | could pre-label macrophages on the mesentery | 
bio-KS29: biotinylated targeting polypeptide KS29, KSSARLEQPDPGAVAAAAILRAILEVLQS (SEQ ID NO: 30) (also: biotinylated, site not given here) | can selectively recognize macrophages in peritoneal cells of mice | can stain a subset of B lymphocyte population and granulocyte population | CD5^+ B lymphocytes | could pre-label macrophages | could pre-label macrophages on the mesentery | 
KA-001 monoclonal antibody (antibody, mouse IgG1, kappa, V domains shown) VH: DVKIVESGGGLVKLGGSLKLSCAASGFTFSRNYMSWVRQTPEKRLELVAGINNNGGSTYYPDTVKGRFTISRDNAKNTLYLQMSSLRSEDTAIYYCAKRGFITTVGAMDYWGQGISVTVSS VL: DIQMTQTTFSLSASLGDRVTISCRASQDISNYLNWYQQIPDGTVKLLIYYTSRLHSGVPSRFSGSGSGTDYSLTISNLEQEDIATYFCQQVHTLPYTFGGGTKLEMKR |  |  |  |  |  | no binding
